Molecular target: T1, PiAHAS mutant W605S (Lobosphaera incisa, UniProt I3VJH2, W604S)
T1 sequence (I3VJH2 with tags, fused parts or gaps W604S): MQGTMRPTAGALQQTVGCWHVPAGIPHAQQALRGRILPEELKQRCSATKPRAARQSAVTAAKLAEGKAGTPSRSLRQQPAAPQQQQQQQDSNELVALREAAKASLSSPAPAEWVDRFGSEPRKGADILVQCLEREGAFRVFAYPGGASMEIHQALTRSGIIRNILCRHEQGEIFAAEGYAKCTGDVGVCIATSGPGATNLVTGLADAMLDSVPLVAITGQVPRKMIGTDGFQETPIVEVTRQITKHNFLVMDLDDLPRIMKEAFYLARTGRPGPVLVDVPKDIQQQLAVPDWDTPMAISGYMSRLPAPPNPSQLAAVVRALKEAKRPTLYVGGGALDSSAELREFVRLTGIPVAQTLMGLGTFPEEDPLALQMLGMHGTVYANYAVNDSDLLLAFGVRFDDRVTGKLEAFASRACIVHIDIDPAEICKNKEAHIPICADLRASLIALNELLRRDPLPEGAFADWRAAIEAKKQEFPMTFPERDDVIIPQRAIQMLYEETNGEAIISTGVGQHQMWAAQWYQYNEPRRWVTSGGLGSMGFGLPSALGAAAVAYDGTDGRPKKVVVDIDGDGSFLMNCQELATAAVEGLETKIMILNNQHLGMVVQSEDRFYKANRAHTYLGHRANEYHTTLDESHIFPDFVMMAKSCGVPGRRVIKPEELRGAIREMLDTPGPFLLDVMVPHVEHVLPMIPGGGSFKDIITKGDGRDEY
Assay: PiAHAS in vitro enzyme assay, inhibition by SMM (mutant)
Assay type: biochemical, Parietochloris incisa
Conditions: even at high concentrations of 200 μM
Experimental: To overexpress the hexahistidine (6xHis)-tagged PiAHAS genes in E. coli strain JM109, plasmids pQE-WT and pQE-MUT were used. These plasmids were constructed by inserting the BamHI-SalI fragment containing the cloned PiAHAS wt and mutant genes into plasmid pQE30 (Qiagen, Hilden, Germany). These plasmids express PiAHAS fused at its N-terminus to the pQE30 6xHis leader. pQE-WT and pQE-MUT were transformed into E. coli for expression. […] The AHAS catalytic activity was determined as previously described (Bar-Ilan A et al. Binding and activation of thiamin diphosphate in acetohydroxyacid synthase. Biochemistry (N.Y.) 2001, 40, 11946-11954). […] Km for pyruvate and Ki for SMM were determined by varying the concentration of the factor in question. Protein concentration was determined by the dye-binding method of Bradford (Bradford MM. A rapid and sensitive method for the quantitation of microgram quantities of protein utilizing the principle of protein-dye binding. Anal. Biochem. 1976, 72, 248-254), with bovine serum albumin as standard. […]
The Ki was determined to be >30×106, 7 orders of magnitude higher than that of the wild type.

COC(=O)c1ccccc1S(=O)(=O)NC(=O)Nc1nc(C)cc(C)n1 [SMM, sulfometuron methyl]
inhibition of enzyme by SMM: strong resistance

Reference: patent publication US9267129B2, “Compositions and methods for conferring herbicide resistance” (BEN-GURION UNIVERSITY OF THE NEGEV RESEARCH AND DEVELOPMENT …, priority 2011, dated 2016)
